Data reported in ChEMBL document CHEMBL1201862, “PubChem BioAssay data set” (2004).
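Five concentrations, 48 hours, 96-well plates. Here, GI50 denotes the concentration required for 50% inhibition of growth.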 Calls of active or inactive are those of the source. Rule as the data show it: active = GI50 up to about 1.1 µM and inactive = higher.

Assays:
Experiment in all cases: growth of human tumour cells (NCI), 48 h
SNB-78 = tested on: SNB-78
SK-MEL-5 = tested on: SK-MEL-5
SNB-75 = tested on: SNB-75
U-251 = tested on: U-251
MOLT-4 = tested on: MOLT-4
K562 = tested on: K562
786-0 = tested on: 786-0
M14 = tested on: M14
SW-620 = tested on: SW-620
XF498 = tested on: XF498
Malme-3M = tested on: Malme-3M
M19-MEL = tested on: M19-MEL
UACC-62 = tested on: UACC-62
A549 = tested on: A549
KM-20L2 = tested on: KM-20L2
RXF 393 = tested on: RXF 393
UO-31 = tested on: UO-31
HT-29 = tested on: HT-29
RXF 631 = tested on: RXF 631
SNB-19 = tested on: SNB-19
TK-10 = tested on: TK-10
HCT-116 = tested on: HCT-116
SN12C = tested on: SN12C
OVCAR-3 = tested on: OVCAR-3
CAKI-1 = tested on: CAKI-1
DMS-273 = tested on: DMS-273
HOP-18 = tested on: HOP-18
DLD-1 = tested on: DLD-1
HL-60 = tested on: HL-60
SK-OV-3 = tested on: SK-OV-3
UACC-257 = tested on: UACC-257
NCI-H460 = tested on: NCI-H460
ACHN = tested on: ACHN
IGROV-1 = tested on: IGROV-1
HOP-92 = tested on: HOP-92
EKVX = tested on: EKVX
HOP-62 = tested on: HOP-62
SF-295 = tested on: SF-295
DMS-114 = tested on: DMS-114
SK-MEL-28 = tested on: SK-MEL-28
HCT-15 = tested on: HCT-15
OVCAR-8 = tested on: OVCAR-8
RPMI-8226 = tested on: RPMI-8226
CCRF-CEM = tested on: CCRF-CEM
OVCAR-4 = tested on: OVCAR-4
LOX IMVI = tested on: LOX IMVI
COLO 205 = tested on: COLO 205
NCI-H23 = tested on: NCI-H23
SK-MEL-2 = tested on: SK-MEL-2

COc1cc(C2C(C(=O)O)=C(COC(C)=O)Oc3cc4c(cc32)OCO4)cc(OC)c1OC(C)=O (centres undefined)
GI50 (SNB-78): > 100 µM (inactive) | GI50 (SK-MEL-5): > 100 µM (inactive) | GI50 (SNB-75): > 100 µM (inactive) | GI50 (U-251): > 100 µM (inactive) | GI50 (MOLT-4): > 100 µM (inactive) | GI50 (K562): > 100 µM (inactive) | GI50 (786-0): > 100 µM (inactive) | GI50 (M14): > 100 µM (inactive) | GI50 (SW-620): > 100 µM (inactive) | GI50 (XF498): > 100 µM (inactive) | GI50 (Malme-3M): > 100 µM (inactive) | GI50 (M19-MEL): > 100 µM (inactive) | GI50 (UACC-62): > 100 µM (inactive) | GI50 (A549): > 100 µM (inactive) | GI50 (KM-20L2): > 100 µM (inactive) | GI50 (RXF 393): > 100 µM (inactive) | GI50 (UO-31): > 100 µM (inactive) | GI50 (HT-29): > 100 µM (inactive) | GI50 (RXF 631): > 100 µM (inactive) | GI50 (SNB-19): > 100 µM (inactive) | GI50 (TK-10): > 100 µM (inactive) | GI50 (HCT-116): > 100 µM (inactive) | GI50 (SN12C): > 100 µM (inactive) | GI50 (OVCAR-3): > 100 µM (inactive) | GI50 (CAKI-1): > 100 µM (inactive) | GI50 (DMS-273): > 100 µM (inactive) | GI50 (HOP-18): > 100 µM (inactive) | GI50 (DLD-1): > 100 µM (inactive) | GI50 (HL-60): > 100 µM (inactive) | GI50 (SK-OV-3): > 100 µM (inactive) | GI50 (UACC-257): > 100 µM (inactive) | GI50 (NCI-H460): > 100 µM (inactive) | GI50 (ACHN): > 100 µM (inactive) | GI50 (IGROV-1): > 100 µM (inactive) | GI50 (HOP-92): > 100 µM (inactive) | GI50 (EKVX): > 100 µM (inactive) | GI50 (HOP-62): > 100 µM (inactive) | GI50 (SF-295): > 100 µM (inactive) | GI50 (DMS-114): > 100 µM (inactive) | GI50 (SK-MEL-28): > 100 µM (inactive) | GI50 (HCT-15): > 100 µM | GI50 (OVCAR-8): > 100 µM (inactive) | GI50 (RPMI-8226): > 100 µM (inactive) | GI50 (CCRF-CEM): > 100 µM (inactive) | GI50 (OVCAR-4): > 100 µM (inactive) | GI50 (LOX IMVI): > 100 µM (inactive) | GI50 (COLO 205): > 100 µM (inactive) | GI50 (NCI-H23): > 100 µM (inactive) | GI50 (SK-MEL-2): > 100 µM (inactive)
